# Reference: patent US11938121B2, “Treatment of infections and biofilm formation using a cellulose synthase inhibitor” (Purdue Research Foundation, priority 2020, dated 2024)
# Tests used:
# GFP-CESA6c^P595S = target: T1, GFP-CESA6c^P595S (Arabidopsis thaliana, UniProt Q94JQ6, P595S); experiment: MST assay with GFP-CESA6c^P595S; format: binding
# T1 construct: We purified AtCESA6 central cytoplasmic domain carrying missense mutation P595S (CESA6c^P595S); made in house; host or cells: E. coli (inferred from the wild-type CESA6c construct that served as template)
# From the text: To obtain the central cytosolic domain of AtCESA6 for the MST assay, we inserted the GFP coding sequence into the SacI and PstI restriction enzyme sites of the pRSF-Duet-1 vector (Huang et al., 2020). The GFP coding sequence was amplified from the pUBN-GFP-DEST vector. The sequence encoding the central cytosolic domain of CESA6 (CESA6c) was amplified from Col-0 cDNA and fused with GFP at the C-terminus. CESA6c construct was used as a template for creating CESA6c^P595S construct by site-directed mutagenesis. Protein purification was performed as previously described (Huang et al., 2020).
# MST assays were carried out using a Monolith NT.115 (NanoTemper) machine at the Chemical Genomics Facility at Purdue University. […] The ES20-1 was dissolved in DMSO, and the final concentration of DMSO was 5% (vol/vol). MST standard capillaries were used to load the samples into the MST instrument. Triplicate reactions were performed for each test. The MST data were processed using MO. Affinity Analysis Version 2.3 software.
# Arabidopsis Col-0 = Arabidopsis Col-0 root growth and root swelling assay; format: in vivo, Arabidopsis thaliana; details: same dosage as ES20
# Method: During the primary screening, we sowed Col-0 seeds on solid growth medium supplemented with 0.1% DMSO or 3 mg/L of different compounds with molar concentrations ranging from 5-10 μM. After 7 days of growth, we imaged the seedlings and evaluated the inhibitory effect of each chemical. Because disrupting cellulose biosynthesis by treating plants with a cellulose biosynthesis inhibitor or introducing mutations in the cellulose biosynthesis pathway often leads to root growth inhibition, root swelling, as well as ectopic lignin accumulation (Arioli et al., Science 1998, 279, 717-720; Huang et al., 2020), we first evaluated the ability of the compounds to inhibit root growth and cause root swelling. […] We grew wildtype seedlings on growth medium supplemented with DMSO (0.1%) or different concentrations of ES20 analogs for 7 days and quantified the crystalline cellulose content in root cell wall. […]
# To test the inhibitory effects of different chemicals on plant growth, wild-type Arabidopsis Col-0 plants were used. […] To quantify the inhibitory effects of different ES20 active analogs on the root growth of Arabidopsis wildtype, EMS mutants, and transgenic plants expressing mutated AtCESA6 in prc1-1 background, sterilized Col-0, mutants, and transgenic plants seeds were sown on gridded Petri plates containing ½-strength MS medium supplemented with different concentrations of ES20 analogs. […]
smiles,measurement,setting,value
Cc1ccccc1C(=O)NNC(=S)NC(=O)c1ccccc1 [ES20-1],interaction with CESA6c^P595S,GFP-CESA6c^P595S,interacts
same,root growth inhibition compared with ES20,Arabidopsis Col-0,more strongly inhibited root growth than ES20
